Test results reported in PMC12078333, “Pharmacokinetic evaluation and bioavailability of KPT-335 (Verdinexor) in cats” (Frontiers in Veterinary Science, 2025).
Read-outs that look alike come from different tables or passages of the source.

Test: Pharmacokinetics study of KPT-335 in cats (i.v. injection, p.o. capsules and tablets; UPLC-MS/MS, non-compartmental analysis)
Type: in vivo
Conditions: both sexes, cat, plasma, cats
Experimental: In this study, a parallel trial design was employed, 42 adult domestic cats (21 males and 21 females), aged 1 to 2 years and weighing 2.5 ± 0.25 kg. Cats were grouped by random number, with half male and female in each group, and all cats were determined to be systemically healthy during an initial screening visit 1 week prior to the experiment. They were acclimatized to the laboratory environment for 7 days before the study commenced. During this period, they were kept in solitary cages with free access to water. Cats in the fasting group were deprived of food for 12 h prior to and 2 h following drug administration, while those in the feeding group were fed twice a day. Food and water sources were consistent throughout the trail. During and at the end of the experiment, we systematically assessed the adverse reactions by recording parameters such as body weight, behavior, and coat gloss in all test cats both before and after the trial. These observations were conducted to evaluate whether any adverse reactions occurred. All procedures were reviewed and approved by the Institutional Animal Care and Use Committee of China Agricultural University (11305-23-E-002).
The UPLC-MS/MS system utilized a UPLC 1290 (Agilent) paired with a Phenomenex Kinetex C18 column (50 mm × 2.1 mm, 2.6 μm) for separation at a flow rate of 0.3 mL/min. The chromatographic mobile phase comprised water (A) and acetonitrile (B), both containing 0.1% formic acid. The gradient elution program was as follows: from 0.5 to 2.5 min, 10 to 95% B; from 2.5 to 4.5 min, 95% B; from 4.5 to 4.6 min, 95 to 10% B; and from 4.6 to 6.0 min, 10% B. The injection volume was 2 μL.
For mass spectrometry, an Agilent 6,475-LC-TQ equipped with an electrospray ion source was used. Multiple Reaction Monitoring (MRM) was selected to quantify KPT-335 in the positive ion mode. The ion transitions monitored were m/z 443.1 → 334.0 and 443.1 → 110.1 for KPT-335, and m/z 444.1 → 334.0 for the internal standard (IS). The cone voltage and collision energy were optimized for KPT-335 and the IS individually, set at 160 V and 25 eV, respectively. The optimized parameters for the instrument included an ion source temperature of 350°C, solvent removal temperature of 320°C, capillary voltage of 3.0 kV, and a solvent gas flow rate of 300 L/h.
The method was developed based on prior research conducted in the laboratory ([16]) and validated in accordance with international guidelines ([17]). The calibration concentration range for KPT-335 spanned from 0.5 to 100 ng/mL, with a lower limit of quantification (LLOQ) set at 0.5 ng/mL. The squared correlation coefficient (R^2) values exceeded 0.999, indicating high linearity.
For sample preparation, 100 μL of plasma was mixed with 10 μL of internal standard (IS) and 900 μL of acetonitrile, followed by vortexing for 2 min. The mixture was then centrifuged at 13,400 × g at 4°C for 10 min. The supernatant was filtered through a 0.22 μm organic membrane, and the resulting sample was analyzed using UPLC-MS/MS.
Cats were divided into seven groups, with six cats in each group. In the intravenous (i.v.) group (Group 1), cats received an injection of KPT-335 at a dosage of 1 mg/kg body weight (BW), administered via a bolus through a venous infusion needle. For the oral (p.o.) administration, cats were given capsules in a fasting state at doses of 0.2 mg/kg BW (Group 2), 1 mg/kg BW (Group 3), and 2 mg/kg BW (Group 4). Additionally, tablets were administered at 1 mg/kg BW (fasting, Group 5), 1 mg/kg BW (Group 6), and 2 mg/kg BW (Group 7) in a feeding state, followed by 3 mL of water delivered with a syringe.
For the p.o. administration, blood samples of 1.5 mL were collected via the brachial cephalic vein prior to administration and at 0.167, 0.333, 0.5, 0.75, 1, 1.5, 2, 4, 6, 8, 12, 24, 32, and 48 h post-administration. […]

[1] = iv, 1 mg/kg, i.v. 1 mg/kg BW, mean, read-out: Plasma concentration Mean
[2] = iv, 1 mg/kg, i.v. 1 mg/kg BW, mean
[3] = po, 0.2 mg/kg, capsule p.o. 0.2 mg/kg BW, mean, read-out: Plasma concentration Mean
[4] = po, 0.2 mg/kg, capsule p.o. 0.2 mg/kg BW, mean
[5] = po, 1 mg/kg, capsule p.o. 1 mg/kg BW, mean, read-out: Plasma concentration Mean
[6] = po, 1 mg/kg, capsule p.o. 1 mg/kg BW, mean
[7] = po, 1 mg/kg, capsule p.o. 1 mg/kg BW, individual cats 1-6, read-out: Plasma concentration
[8] = po, 1 mg/kg, tablet p.o. 1 mg/kg BW after fasting, individual cats 1-6, read-out: Plasma concentration
[9] = po, 1 mg/kg, tablet p.o. 1 mg/kg BW after fasting, mean, read-out: Plasma concentration Mean
[10] = po, 1 mg/kg, tablet p.o. 1 mg/kg BW after fasting, mean

O=C(/C=C\n1cnc(-c2cc(C(F)(F)F)cc(C(F)(F)F)c2)n1)NNc1ccccn1 [KPT-335]
concentration at 0.083 h (iv, 1 mg/kg, i.v. 1 mg/kg BW, 0.083 h, mean): 844 ng/mL | concentration at 0.167 h [1]: 812 ng/mL | concentration at 0.25 h (iv, 1 mg/kg, i.v. 1 mg/kg BW, 0.25 h, mean): 767 ng/mL | concentration at 0.33 h [2]: 733 ng/mL | concentration at 0.5 h [2]: 667 ng/mL | concentration at 0.75 h [2]: 526 ng/mL | concentration at 1 h [1]: 531 ng/mL | concentration at 2 h [1]: 441 ng/mL | concentration at 4 h [1]: 255 ng/mL | concentration at 8 h [2]: 95.9 ng/mL | concentration at 12 h [2]: 39.5 ng/mL | concentration at 24 h [2]: 10.2 ng/mL | concentration at 32 h [2]: 4.86 ng/mL | half-life (other: i.v. and p.o., i.v. and p.o. routes, all groups, read-out: half-life (T1/2), range over all groups): 3.5 to 7 h | concentration at 0.167 h [3]: 1.34 ng/mL | concentration at 0.33 h [4]: 6.56 ng/mL | concentration at 0.5 h [4]: 13.6 ng/mL | concentration at 0.75 h [4]: 20.8 ng/mL | concentration at 1 h [3]: 21.5 ng/mL | concentration at 1.5 h [3]: 22.9 ng/mL | concentration at 2 h [3]: 22.4 ng/mL | concentration at 4 h [3]: 17.9 ng/mL | concentration at 6 h [4]: 15.5 ng/mL | concentration at 8 h [4]: 13.9 ng/mL | concentration at 12 h [4]: 9.36 ng/mL | concentration at 24 h [4]: 3.49 ng/mL | concentration at 32 h [4]: 3.58 ng/mL | concentration at 0.167 h [5]: 4.97 ng/mL | concentration at 0.33 h [6]: 39.5 ng/mL | concentration at 0.5 h [6]: 100 ng/mL | concentration at 0.75 h [6]: 174 ng/mL | concentration at 1 h [7]: 161 ng/mL | concentration at 1 h [5]: 233 ng/mL | concentration at 1.5 h [5]: 250 ng/mL | concentration at 2 h [5]: 227 ng/mL | concentration at 4 h [5]: 153 ng/mL | concentration at 6 h [6]: 79.2 ng/mL | concentration at 8 h [6]: 53.1 ng/mL | concentration at 12 h [6]: 24.6 ng/mL | concentration at 24 h [6]: 5.57 ng/mL | concentration at 32 h [6]: 1.82 ng/mL | concentration at 48 h [7]: 0.69 ng/mL | concentration at 48 h [5]: 0.84 ng/mL | AUC(0-t) (po, 1 mg/kg, p.o., Tablet, Feeding, 1 mg/kg BW, read-out: AUClast): 2270 ± 1250 ng·h/mL | concentration at 0.167 h [8]: 5.51 ng/mL | concentration at 0.167 h [9]: 5.66 ng/mL | concentration at 0.33 h [10]: 77.5 ng/mL | concentration at 0.5 h [10]: 204 ng/mL | concentration at 0.75 h [10]: 223 ng/mL | concentration at 1 h [9]: 227 ng/mL | concentration at 1.5 h [9]: 235 ng/mL | concentration at 2 h [8]: 208 ng/mL | concentration at 2 h [9]: 216 ng/mL | concentration at 4 h [8]: 209 ng/mL | concentration at 4 h [9]: 187 ng/mL | concentration at 6 h [10]: 154 ng/mL | concentration at 8 h [10]: 121 ng/mL | concentration at 12 h [10]: 74.1 ng/mL | concentration at 24 h [10]: 15.5 ng/mL
